33 molecules from patent US20200079766A1, “MONOCYCLIC OGA INHIBITOR COMPOUNDS” (Janssen Pharmaceutica NV, priority 2016, published 2020) can be followed below.

Counter-ions that a name gives are not always drawn.

The target in series [1] is T1, recombinant human Meningioma Expressed Antigen 5 (MGEA5), also referred to as O-GlcNAcase (OGA) (Homo sapiens, UniProt O60502).
T1 construct: Full length OGA enzyme was purchased at OriGene (cat # TP322411); purchased OriGene TP322411
T1 sequence (O60502 1-916): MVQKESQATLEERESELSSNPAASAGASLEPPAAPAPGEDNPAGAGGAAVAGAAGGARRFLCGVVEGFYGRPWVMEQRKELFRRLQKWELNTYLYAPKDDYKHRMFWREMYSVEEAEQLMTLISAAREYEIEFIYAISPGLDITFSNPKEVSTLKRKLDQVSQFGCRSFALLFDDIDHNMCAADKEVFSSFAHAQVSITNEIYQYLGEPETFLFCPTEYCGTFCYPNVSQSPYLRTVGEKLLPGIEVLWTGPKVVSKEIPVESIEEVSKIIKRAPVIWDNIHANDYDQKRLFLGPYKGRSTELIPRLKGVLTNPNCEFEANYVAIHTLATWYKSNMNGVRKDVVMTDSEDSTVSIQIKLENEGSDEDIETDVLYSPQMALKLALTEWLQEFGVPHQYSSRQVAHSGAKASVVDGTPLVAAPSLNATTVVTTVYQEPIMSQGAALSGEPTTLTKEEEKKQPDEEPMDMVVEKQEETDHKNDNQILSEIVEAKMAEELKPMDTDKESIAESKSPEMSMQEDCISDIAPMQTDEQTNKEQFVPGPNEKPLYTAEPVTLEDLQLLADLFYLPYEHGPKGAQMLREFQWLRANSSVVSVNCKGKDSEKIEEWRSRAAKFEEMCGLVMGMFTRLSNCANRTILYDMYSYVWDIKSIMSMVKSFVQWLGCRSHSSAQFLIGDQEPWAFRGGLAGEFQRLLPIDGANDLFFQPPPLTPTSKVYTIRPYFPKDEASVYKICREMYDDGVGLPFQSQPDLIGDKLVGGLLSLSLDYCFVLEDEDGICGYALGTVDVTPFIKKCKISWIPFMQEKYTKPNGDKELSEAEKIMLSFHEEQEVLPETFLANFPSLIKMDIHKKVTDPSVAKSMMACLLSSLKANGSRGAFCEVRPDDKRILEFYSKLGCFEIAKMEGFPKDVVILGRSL
As to the kind of experiment: OGA biochemical assay: inhibition of FM-GlcNAc hydrolysis, fluorescence; protocol A (10 nM OGA, 1 h) or protocol B (2 nM OGA, 6 h). Conditions: Enzymatic protocol B (2 nM OGA, 6 h); for IC50: read-out: Enzymatic hOGA, pIC50 (converted). In a few lines:
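Full-length human OGA in 200 mM citrate/phosphate pH 7.2 with 0.005% Tween-20, compound pre-incubated 60 min at RT, then 100 uM FM-GlcNAc (final); 10 nM enzyme for 1 h or 2 nM for 6 h at RT. Stopped with pH 11.0 carbonate; fluorescein read at ex 485/em 538 nm. IC50 and Hill coefficient from curve fit.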

Series [2] relates to OGA in HEK293 cells inducible for P301L mutant human Tau (isoform 2N4R). The experiment in a line: OGA cellular assay: immunocytochemical detection of O-GlcNAcylated proteins (CTD110.6 antibody) after 6 h incubation. It is filed as cell-based. Conditions: Homo sapiens, HEK293, 6 h; for Emax: maximum = Thiamet G 200 uM; for EC50: read-out: Cellular hOGA, pEC50 (converted). In a few lines: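 Low-glucose medium, 6 h compound exposure at 0.2% DMSO; cells PFA-fixed and O-GlcNAc ICC signal imaged at 488 nm (9 fields/well), Hoechst nuclei counted for toxicity. Thiamet G 200 uM on each plate as maximum; IC50 from non-linear regression.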

One may read the melting point as the temperature of the solid-liquid transition. Usually Emax stands for the size of the effect at its maximum, as opposed to the concentration needed.

Consider `Cc1cc(CC2CCCN(C(C)c3ccc4c(c3)OCCO4)C2)cc(C)n1` (racemic) (as salt: HCl) [compound 142], for which the melting point stood at 256.05 °C.
Regarding `CC(=O)Nc1ncc(CN2CCC(OCc3cc(C)nc(C)c3)C2)s1` (racemic) [Product 81], the melting point amounted to 118.26 °C.
On to `CC(=O)Nc1ncc(CN2CCC(COc3cc(C)nc(C)c3)C2)s1` (racemic) [Product 89], for which the melting point is 125.9 °C.
Molecule `CC(=O)Nc1ncc(CN2CCC(Cc3cncnc3C)C2)s1` (racemic) [Product 103] gave a melting point of 147.16 °C.
Molecule `Cc1cc(CC2CCCN(C(C)c3ccc4sc(C)nc4c3)C2)cc(C)n1` (single isomer, unassigned) (as salt: HCl) [compound 118] gave a melting point of 270.1 °C.
As to `CC(=O)Nc1ncc(CN2CCC(Cc3cc(F)ncc3C)C2)s1` (stereo not drawn) [Product 106], the melting point was found to be 140.36 °C.
In turn, `CC(=O)Nc1ncc(CN2CCC(Cc3ccc(C)c(C)n3)C2)s1` (stereo not drawn) [compound 38] returned a melting point of 107.53 °C. Further, in series [1], the Emax is 99.7% and the IC50 was 19.5 nM. In series [2], the Emax was 90.3% and the EC50 is 39.8 nM.
On to `CC(=O)Nc1ncc(CN2CCC(Cc3ncccc3F)C2)s1` (stereo not drawn) [compound 39], for which the melting point is 150.08 °C. Also, in series [1], the Emax worked out at 99.2% and the IC50 was 60.3 nM.
`CC(=O)Nc1ncc(CN2CCC(Cc3nccc(C)c3F)C2)s1` (stereo not drawn) [compound 43] displayed a melting point of 129.25 °C. Further, in series [1], the Emax turned out to be 102% and the IC50 is 9.12 nM. Also, in series [2], the Emax came out at 87% and the EC50 is 79.4 nM.
Take `CC(=O)Nc1ncc(CN2CCC(Cc3cnc(C(N)=O)cn3)C2)s1` (stereo not drawn) [compound 105]: in series [1], the maximal response (Emax) was found to be 102% and the IC50 was 19.5 nM. Also, in series [2], the Emax came out at 93.3% and the EC50 was 100 nM.
For the molecule `CC(=O)Nc1ncc(CN2CCC(Cc3cc(F)ncc3C)C2)s1` (stereo not drawn) [compound 106], in series [1], the Emax came out at 101% and the IC50 was 21.4 nM. Moreover, in series [2], the Emax turned out to be 86.9% and the EC50 was 41.7 nM.
`CC(=O)Nc1ncc(CN2CCC(Cc3ccc(F)c(C)n3)C2)s1` (stereo not drawn) [compound 107] had a melting point of 173.68 °C. In addition, in series [1], the Emax was determined as 102% and the IC50 was 40.7 nM. In series [2], the Emax came to 82% and the EC50 is 138 nM.
The molecule `CC(=O)Nc1ncc(CN2CCC(Cc3cncc(C)n3)C2)s1` (stereo not drawn) [compound 108] registered a melting point of 118.3 °C. Moreover, in series [1], the Emax was determined as 103% and the IC50 was 33.1 nM. Also, in series [2], the Emax was 78.9% and the EC50 is 155 nM.
Take `COc1nc(C)ccc1CC1CCN(Cc2cnc(NC(C)=O)s2)C1` (stereo not drawn) [compound 109]: in series [1], the Emax turned out to be 103% and the IC50 is 18.6 nM. Further, in series [2], the Emax came to 115% and the EC50 was 52.5 nM.
On to `CC(=O)Nc1ncc(CN2CC[C@H](Cc3cc(C)nc(F)c3)C2)s1` [compound 110], for which, in series [1], the Emax was determined as 103% and the IC50 was 20 nM. In series [2], the Emax is 91.3% and the EC50 is 24.5 nM.
Turning to `CC(=O)Nc1ncc(CN2CC[C@@H](Cc3cc(C)nc(F)c3)C2)s1` [compound 111], in series [1], the Emax worked out at 103% and the IC50 was 30.9 nM. Besides, in series [2], the Emax was 97.4% and the EC50 was 52.5 nM.
For the molecule `CC(=O)Nc1ncc(CN2CC[C@H](Cc3cc(C)nc(C)c3)C2)s1` [compound 112], in series [1], the Emax is 102% and the IC50 is 4.57 nM. Further, in series [2], the Emax is 118% and the EC50 was 17.8 nM.
In the same order, the values of `CC(=O)Nc1ncc(CN2CC[C@@H](Cc3cc(C)nc(C)c3)C2)s1` [compound 113] are 102%, 4.47 nM, 105% and 11.2 nM.
`Cc1cc([C@H]2CCCN([C@@H](C)c3ccc4sc(C)nc4c3)C2)cc(C)n1` [compound 117]: in series [1], the Emax is 102% and the IC50 is 12 nM. In addition, in series [2], the Emax turned out to be 99.5% and the EC50 is 97.7 nM.
Take `CC(=O)Nc1ncc(CN2CCC[C@H](Cc3ncc(F)cc3F)C2)s1` [compound 121]: in series [1], the Emax worked out at 98.3% and the IC50 is 4.27 nM. Moreover, in series [2], the Emax was determined as 110% and the EC50 was 28.8 nM.
On to `CC(=O)Nc1ncc(CN2CCC[C@H](Cc3cc(F)ncc3C)C2)s1` [compound 122], for which, in series [1], the Emax came to 100% and the IC50 is 2.51 nM. In series [2], the Emax is 97.2% and the EC50 was 4.17 nM.
Turning to `CC(=O)Nc1ncc(CN2CCC[C@H](Cc3cc(C)nc(F)c3)C2)s1` [compound 123], in series [1], the Emax was 99.2% and the IC50 is 2.75 nM. In series [2], the Emax was found to be 90.5% and the EC50 was 9.77 nM.
With `COc1nc(C)ccc1C[C@H]1CCCN(Cc2cnc(NC(C)=O)s2)C1` [compound 126], in series [1], the Emax came to 100% and the IC50 was 1.38 nM. For the same molecule, in series [2], the Emax was determined as 97.5% and the EC50 was 11.5 nM.
As to `CC(=O)Nc1ncc(CN2CCC[C@H](Cc3cncc(C)n3)C2)s1` [compound 127], in series [1], the Emax is 102% and the IC50 was 2.88 nM. In series [2], the Emax amounted to 88.5% and the EC50 was 27.5 nM.
As for `CC(=O)Nc1ncc(CN2CCC[C@H](Cc3nc(C)cnc3C)C2)s1` [compound 128], in series [1], the Emax turned out to be 102% and the IC50 is 1.82 nM. For the same molecule, in series [2], the Emax came out at 93.2% and the EC50 is 39.8 nM.
The like results for `CC(=O)Nc1ncc(CN2CCC[C@H](Cc3ccc(F)c(C)n3)C2)s1` [compound 129] were, in that order, 102%, 2.82 nM, 101% and 20 nM.
In the case of `CC(=O)Nc1ncc(CN2CCCC(COc3cc(C)nc(C)c3)C2)o1` (stereo not drawn) [compound 138], in series [1], the Emax is 102% and the IC50 was 53.7 nM. In addition, in series [2], the Emax was determined as 74.2% and the EC50 was 437 nM.
In the case of `COc1cc(C[C@H]2CCN(Cc3cnc(NC(C)=O)s3)C2)cc(C(F)(F)F)n1` [compound 143], in series [1], the Emax is 102% and the IC50 is 21.4 nM. In series [2], the Emax worked out at 86.2% and the EC50 was 60.3 nM.
In the case of `Cc1cc(C2CCCN(C(C)c3ccc4nccnc4c3)C2)cc(C(F)(F)F)n1` (stereo not drawn) [compound 144], in series [1], the Emax worked out at 101% and the IC50 was 41.7 nM. Moreover, in series [2], the Emax stood at 42.8% and the EC50 is greater than 1000 nM.
Consider `Cc1cc(C[C@H]2CCCN(Cc3ccc4sc(C)nc4c3)C2)cc(C)n1` [compound 145], for which, in series [1], the maximal effect (Emax) was 101% and the IC50 was 126 nM. Further, in series [2], the Emax was found to be 39.4% and the EC50 is greater than 1000 nM.
As for `Cc1cc(C[C@H]2CCCN(Cc3ccc4scnc4c3)C2)cc(C)n1` [compound 147], in series [1], the Emax came to 99% and the IC50 was 282 nM. In series [2], the Emax was found to be 33.2% and the EC50 is greater than 1000 nM.
As to `Cc1cc(C[C@H]2CCCN(Cc3ccc4c(c3)OCCO4)C2)cc(C)n1` [compound 152], in series [1], the Emax was found to be 102% and the IC50 is 102 nM. In series [2], the Emax turned out to be 41.9% and the EC50 was greater than 1000 nM.
As for `CC(=O)Nc1ncc(CN2CCC[C@@H](COc3cc(C)nc(C)c3)C2)s1` [compound 154], in series [1], the Emax is 103% and the IC50 was 15.1 nM. Further, in series [2], the Emax came to 116% and the EC50 was 38 nM.
